System: postmenopausal women at high risk for cardiovascular events
Assay: Randomized, double-blind, placebo-controlled, multi-center Phase 3 study; observed vs expected cardiovascular events
Assay type: in vivo
Settings: postmenopausal women at high risk for cardiovascular disease, compared with untreated group
Description: The following example calculates the expected number of cardiovascular events in a population of postmenopausal women derived from historical data. The estimate of the expected rate of cardiovascular events has been determined from the event rates noted in the Women's Health Initiative (WHI), a Department of Health and Human Services National Institute of Health-sponsored study of women between 50 and 79 years of age, a similar set of women between that age were enrolled for determining the actual number of cardiovascular events as described in Example 2.
Overall, the cardiovascular event rate in women in the WHI study who had at least one cardiovascular risk factor was approximately 2-fold greater than in women without any cardiovascular risk factors. […]
The study consisted of a screening period of up to 8 weeks and a 60-month treatment period. […] Adverse cardiovascular and breast cancer events (ABC events) were assessed at each subject contact in addition to the usual assessments of safety and concomitant medications. […]
There were eight adjudicated cardiovascular events determined from this Phase 3 clinical trial after greater than 4,000 woman-years of therapy.

C[C@]12CC[C@H]3[C@@H](CCC4=CC(=O)CC[C@@]43C)[C@@H]1CC[C@@H]2O [testosterone, testosterone (17-β-hydroxyandrostenone)]
risk of having a cardiovascular event (result in words): decreases in the risk of having a cardiovascular event

From US20120022033A1, “Methods for decreasing cardiovascular risk in postmenopausal women” (BIOSANTE PHARMACEUTICALS, INC., priority 2010, published 2012)
